Data from patent US8603751B2, “Mycobacterial disease detection, treatment, and drug discovery” (priority 2006, dated 2013).

Molecular target: DevR (also known as DosR or Rv3133c) dimerization (Mycobacterium tuberculosis, UniProt P9WMF9)
Test: M-PFC Alamar Blue screen for inhibitors of DevR dimerization
Assay type: cell-based
Conditions: for effect on DevR dimerization: M-PFC Alamar Blue assay in Msm, titration (FIG. 11); for concentration with the most dramatic effect on DevR dimerization: titration curves, FIG. 11

Sequence of DevR (also known as DosR or Rv3133c) dimerization (P9WMF9 whole entry, looked up): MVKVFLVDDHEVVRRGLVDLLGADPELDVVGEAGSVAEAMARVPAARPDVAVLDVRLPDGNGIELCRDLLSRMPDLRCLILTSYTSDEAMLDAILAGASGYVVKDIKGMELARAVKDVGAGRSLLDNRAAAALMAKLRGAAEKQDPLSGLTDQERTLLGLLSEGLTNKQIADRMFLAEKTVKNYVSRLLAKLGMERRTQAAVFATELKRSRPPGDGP

Cl.Cn1c(=N)n(CC(=O)c2cc(C(C)(C)C)c(O)c(C(C)(C)C)c2)c2ccccc21 [1-(3,5-di-tert-butyl-4-hydroxyphenyl)-2-(2-imino-3-methyl-2,3-dihydro-1H-benzimidazol-1-yl)ethanone hydrochloride]
effect on DevR dimerization: inhibitory effect against DevR dimerization at low concentrations
concentration with the most dramatic effect on DevR dimerization: 12.5 µg/mL

CC(=O)NS(=O)(=O)c1ccc(NC(=O)CCc2ccccc2)cc1 [N-(4-[(acetylamino)sulfonyl]phenyl)-3-phenylpropanamide]
effect on DevR dimerization: inhibitory effect against DevR dimerization at low concentrations
concentration with the most dramatic effect on DevR dimerization: 12.5 µg/mL
